Two substances from patent publication US9295730B2, “Conjugated molecules comprising a peptide derived from the CD4 receptor coupled to a polyanion for the treatment of AIDS” (Institut Pasteur, priority 2008, dated 2016) can be followed below.

Common to all, as to format: cell-based
Series [1] deals with X4-tropic HIV-1-LAI. The experiment in a line: Antiviral assay, PHA-P-activated PBMC infected with HIV-1-LAI, RT activity in supernatants. To be noted: Table 7, VIH-1-LAI; for EC50: read-out: ED50 (the source's name).
Series [2] deals with uninfected PHA-P-activated PBMC. As to the kind of experiment: Cytotoxicity, MTT assay on day 7. Here is the method: (§1) In parallel, cytotoxicity of the samples was evaluated in uninfected PHA-P-activated PBMC by a methyltetrazolium salt (MTT) assay on day 7. Experiments were performed in triplicate and 50, 70 and 90% effective doses and cytotoxic doses were calculated using SoftMaxPro software.

Series [3] has as its system R5-tropic HIV-1/Ba-L. The experiment in a line: Antiviral assay, PHA-P-activated PBMC infected with HIV-1/Ba-L, RT activity in supernatants. To be noted: Table 7, VIH-1/Ba-L.
A short description of series [4]: Cytotoxicity, MTT assay on day 7. To be noted: human, uninfected PHA-P-activated PBMC. Here is the method:
as §1
A general note: Formazan colour is commonly taken as a measure of viable cells.

Ends that are not written are not given here.

For the substance “5-aminopentyl[(3-O-benzyl-4-O-(4-methoxybenzyl)-2-O-sulfonato-α-L-idopyranosyluronate)-(1→4)-O-(3-O-benzyl-2-deoxy-2-sulfoamino-6-O-sulfonato-α-D-glucopyranoside)-(1→4)-O-(3-O-benzyl-2-O-sulfonato-α-L-idopyranosyluronate)]-(1→4)-O-3-O-benzyl-2-deoxy-2-sulfoamino-6-O-sulfonato-α-D-glucopyranoside heptasodium salt [HS4Bz]”, in series [1], the ED70 is over 1 µM, the ED90 is over 1 µM and the EC50 was over 1 µM. In series [2], the “Cytotoxicity CT50” value is recorded as over 1000 nM, the “Cytotoxicity CT70” value is given as over 1000 nM and the “Cytotoxicity CT90” value was over 1000 nM.
As usually defined, the CC50 is the concentration that lowers cell viability or growth by half. Lower therefore signals harm at low concentration. In series [3], MEDLEETLFEEFENYSYDLDYYSLESC [GPR1] yielded an ED70 of over 1 µM and an ED90 of over 1 µM. Also, the EC50 in series [3] (read-out: ED50 (the source's name)) was over 1 µM. For the same substance, in series [1], the ED70 is over 1 µM, the ED90 was over 1 µM and the EC50 was over 1 µM. In series [4], this substance had a CC50 at 168 h of over 1 µM. In addition, in series [2], the “Cytotoxicity CT70” value is over 1000 nM and the “Cytotoxicity CT90” value is recorded as over 1000 nM.
